PMC10619556, “Comprehensive Evaluation System for Post-Metabolic Activity of Potential Thyroid-Disrupting Chemicals” (Journal of Microbiology and Biotechnology, 2023)
Where a name gives a salt, the structure may show the parent alone. Read-outs that look alike come from different tables or passages of the source.

Tests used:
[1] = system: thyroid hormone receptor (THR); assay: hTRE_HeLa THR transcriptional activity (nano luciferase reporter) assay with rat liver S9 mixtures; format: cell-based, human; conditions: hTRE_HeLa cells; for THR agonist classification (positive if >= 10% of activity of 100 nM T3): parent, inactive S9, phase I and phase I+II groups, before and after S9 reaction; for THR transcriptional activity after phase I+II reaction: phase I+II group
Method: The hTRE_HeLa cell line, obtained from the MFDS, was used to detect thyroid hormone receptor (THR) agonists through transcriptional activation analysis, utilizing a stably modified thyroid receptor-reactive human cervical cancer cell line along with one plasmid from a nano luciferase reporter. For cell line maintenance, minimum essential media (MEM, Gibco, USA) supplemented with 10% FBS, 1% penicillin/streptomycin (P/S), and 1 ml Hygromycin B (InvivoGen, USA) was used. The hTRE_Hela cell line was conditioned and treated in test medium containing Phenol red free of MEM (Gibco) supplemented with 10% charcoal-stripped FBS (CS-FBS), 1% P/S, and 1 mL Hygromycin B. hTRE_HeLa cells were maintained in 37°C and 5% CO2 incubator. hTRE_HeLa cells were seeded with 5 × 10^3 cells per well in the 96-well plate for 24 h and treated with EDCs and S9 mixtures for 48 h.
The S9 mixture for phase I metabolism was prepared with 0.1 mg/ml rat liver S9, 2 × 10^-3 M NADPH, 3 × 10^-2 M G-6-P, 5 × 10^-2 M MgCl2, and 3 units/ml G-6-PD. For phase I+II metabolism, 2 × 10^-2 M GSH, 5 × 10^-3 M UDPGA, and 2 × 10^-5 M PAPS were additionally included to the S9 mixture. […] The S9 mixtures were added to the aforementioned test medium to be diluted 10 times. After 24 h of seeding, hTRE_HeLa cells were treated with the S9 mixtures pre-incubated for 6 h and EDCs with different concentrations.
The vehicle control (VC) included only 0.145% of DMSO containing 9 × 10^-12 M 9-cis-Retinoic acid. The final volume for each well was 100 μl. […] After treatment, 10 μl of treated medium was transferred to a new plate, to which 40 μl of test medium and 50 μl of Nano-Glo luciferase reagent (Promega, USA) were added. After a 10 min incubation, the luciferase activity was measured using a luminescence reader (Glomax Discover, Promega). For data analysis, relative transcriptional activity (RTA) of PC was set to 100%, and RTA of VCcontrol was set to 0%. The % to PC value of EDCs was calculated to (EDCs – VCtest) / (PC – VCcontrol). The VCtest was set to the VC for each test group. If the EDC was greater than or equal to 10% of PC, the EDC was determined to be a THR agonist-positive chemical. The data were described by the mean ± standard deviation.

[2] = Sprague-Dawley, rat, pH 7.4
[3] = In vitro metabolic reaction using rat liver S9 fraction with LC-MS / GC-MS metabolic profiling; conditions: for Metabollic rate: rat liver S9, phase I+II reaction vs inactivated S9 control, BDE28 and 4,4'-DIDBP by GC-MS, others by LC-MS; for Metabolic rate (parent decreased by) after the reaction: rat liver S9, phase I+II biotransformation
[4] = concentration not given, RTA with 100 nM T3 (PC) = 100%

Ic1ccc(-c2ccc(I)cc2)cc1 [4,4’-DIDBP, 4,4'-diiodobiphenyl]
THR agonist classification (positive if >= 10% of activity of 100 nM T3) [1]: THR agonistic negative
Metabollic rate [2]: 82%

CCCCc1oc2ccccc2c1C(=O)c1cc(I)c(OCCN(CC)CC)c(I)c1 [Amiodarone, amiodarone hydrochloride]
THR agonist classification (positive if >= 10% of activity of 100 nM T3) [1]: THR agonistic negative

Brc1ccc(Oc2ccc(Br)cc2Br)cc1 [BDE28, BDE No. 28]
THR agonist classification (positive if >= 10% of activity of 100 nM T3) [1]: THR agonistic negative
Metabollic rate [3]: 99%

O=C(c1ccc(O)cc1O)c1ccc(O)cc1O [BP-2, 2,2',4,4'-tetrahydroxybenzophenone]
THR agonist classification (positive if >= 10% of activity of 100 nM T3) [1]: THR agonistic negative
Metabollic rate [3]: 11%

CC(C)(c1ccc(O)cc1)c1ccc(O)cc1 [BPA, bisphenol A]
THR agonist classification (positive if >= 10% of activity of 100 nM T3) [1]: THR agonistic negative
Metabollic rate [2]: 52%

Cc1cc(C(C#N)c2ccc(Cl)cc2)c(Cl)cc1NC(=O)c1cc(I)cc(I)c1O (centres unmarked) [Closantel, closantel]
THR agonist classification (positive if >= 10% of activity of 100 nM T3) [1]: THR agonistic negative
Metabollic rate [2]: 49%

O=C(O)CCc1cc(I)c(Oc2ccc(O)cc2)c(I)c1 [DITPA, 3,5-diiodothyropropionic acid]
THR agonist classification (positive if >= 10% of activity of 100 nM T3) [1]: THR agonistic positive
THR transcriptional activity after phase I+II reaction [1, 4]: 30.7 ± 1.8%
Metabolic rate (parent decreased by) after the reaction [3]: 29%

C[C@]12CC[C@@H]3c4ccc(O)cc4CC[C@H]3[C@@H]1CC[C@@H]2O [E2, 17β-estradiol]
THR agonist classification (positive if >= 10% of activity of 100 nM T3) [1]: THR agonistic negative
Metabollic rate [3]: 44%

Cc1cc(OCC(=O)O)cc(C)c1Cc1ccc(O)c(C(C)C)c1 [GC-1, sobetirome]
THR agonist classification (positive if >= 10% of activity of 100 nM T3) [1]: THR agonistic positive
THR transcriptional activity after phase I reaction ([1]; phase I group, concentration not given, RTA with 100 nM T3 (PC) = 100%): 166.3 ± 12.0%
THR transcriptional activity after phase I+II reaction [1, 4]: 160.6 ± 8.6%
Metabolic rate (parent decreased by) after the reaction [3]: 15%

COc1c(O)cc2oc(-c3ccc(O)cc3)cc(=O)c2c1O [Hispidulin, hispidulin]
THR agonist classification (positive if >= 10% of activity of 100 nM T3) [1]: THR agonistic negative

CC12CC1(C)C(=O)N(c1cc(Cl)cc(Cl)c1)C2=O (centres unmarked) [Procymidone, procymidone]
THR agonist classification (positive if >= 10% of activity of 100 nM T3) [1]: THR agonistic negative
Metabollic rate [2]: 55%

O=C(Nc1ccc(Oc2ccc(Cl)cc2)c(Cl)c1)c1cc(I)cc(I)c1O [Rafoxanide, rafoxanide]
THR agonist classification (positive if >= 10% of activity of 100 nM T3) [1]: THR agonistic negative
Metabollic rate [3]: 51%

N[C@@H](Cc1cc(I)c(Oc2ccc(O)c(I)c2)c(I)c1)C(=O)O [T3, 3,3’,5-triiodo-L-thyronine]
Induction compared to the VC value ([1]; T3 100 nM as positive control): ≥ 4.8 fold
THR agonist classification (positive if >= 10% of activity of 100 nM T3) [1]: THR agonistic positive
Metabolic rate (parent decreased by) after the reaction [3]: 3%

N[C@@H](Cc1cc(I)c(Oc2cc(I)c(O)c(I)c2)c(I)c1)C(=O)O [T4, Levothyroxine]
THR agonist classification (positive if >= 10% of activity of 100 nM T3) [1]: THR agonistic positive
